Read-outs that look alike come from different tables or passages of the source.
Assays:
Assay type in all cases: cell-based
Aβ-38 = assay: MSD Human (6E10) Ab 3-PLEX elisa, conditioned media of 2B7 cells: Aβ-38; details: Homo sapiens, Aβ-38 (superscript a)
Description: (§1) Assays were conducted to determine the ability of a Compound of Formula I to modulate […], and Aβ-38.
(§2) Plates with capture antibodies were blocked for 1-2 hours at room temperature with 150 μL of the manufactures blocking reagent.
(§3) Conditioned Media: • Cultured 2B7 cells in 96 well plate with 250 uL of media per well until confluent; • Prepared serial dilutions of compounds in DMSO at 100× the final desired concentration; • Washed wells with 2B7 cells 1× with 250 uL of media; • Diluted DMSO stocks 1:100 into media: • Added 250 μL of media containing compounds (1% DMSO) to wells with 2B7 cells for 5 hours at 37° C.
(§4) Elisa Sample Prep: • Diluted conditioned media: 1 part media with 1% DMSO and 1 part blocking buffer; • 150 μL of the 250 μL of conditioned media were used.
(§5) […] CURVE SAMPLE PREP: Prepared per manufacturer's protocol (see above) • Seven point standard curve samples were prepared that contained Aβ-42, Aβ-40, and Aβ-38. The highest concentration of Aβ-42 and Aβ-3-38 was 3,000 pg/mL and the highest concentration of Aβ-40 was 10,000 pg/mL. Subsequent serial dilutions were 1:3 and the final composition of each sample was 1 part blocking buffer and 1 part cell medium containing 1% DMSO.
(§6) Overnight Sample Incubation: • Blocked plates are washed 5× with MSD wash buffer with a plate washer • 25 uL of detection antibody and blocker G reagent in MSD blocking solution is added • 25 uL of samples (1 part conditioned media containing 1% DMSO and 1 part MSD blocking buffer) are then added. • plates are incubated overnight at 4 degrees C. or 2 hours at room temp
(§7) Final Wash and Readout: • Wash wells 5× with MSD wash buffer • Added 150 μL 2×MSD read buffer • Read with MSD imager.
(§8) A-Beta peptide levels for each peptide are calculated from the standard curve using the MSD software provided with the MSD 2400 Imager. Percent vehicle values for each compound dosage were then calculated and fit to a 4 parameter curve generating IC50 values.

Aβ-40 = assay: MSD Human (6E10) Ab 3-PLEX elisa, conditioned media of 2B7 cells: Aβ-40; details: for IC50: Homo sapiens, Aβ-40 (superscript b)
Description: as §1, §2, §3, §4, §5, §6, §7, §8

Aβ-42 = assay: MSD Human (6E10) Ab 3-PLEX elisa, conditioned media of 2B7 cells: Aβ-42; details: Homo sapiens; for IC50: Aβ-42 (superscript c); for inhibition at 20 µM: Aβ-42, 20 μM
Description: as §1, §2, §3, §4, §5, §6, §7, §8

SMILES | IC50 (Aβ-38; read-out: 50% reduction value) [nM] | IC50 (Aβ-40; read-out: 50% reduction value) [nM] | IC50 (Aβ-40; read-out: IC50 range) [nM] | IC50 (Aβ-42; read-out: 50% reduction value) [nM] | IC50 (Aβ-42; read-out: IC50 range) [nM] | IC50 (Aβ-38; read-out: IC50 range) [nM] | % Inh. (range) (Aβ-40; Aβ-40, 20 μM) | inhibition at 20 µM (Aβ-42) [%]
C=C(C)CO[C@@H](C1C[C@@H](C)[C@H]2C(O1)[C@H](O)[C@@]1(C)C3CC[C@H]4C(C)(C)C(OC(=O)NC5CNC5)CC[C@@]45C[C@@]35CC[C@]21C)C(C)(C)O (stereo partly shown) | < 1000 | 1000 to 10000 | > 10000 | < 1000 | < 1000 | – | – | –
CC(C)CO[C@@H](C1C[C@@H](C)[C@H]2C(O1)[C@H](O)[C@@]1(C)C3CC[C@H]4C(C)(C)C(OC(=O)NC5CNC5)CC[C@@]45C[C@@]35CC[C@]21C)C(C)(C)O (stereo partly shown) | 1000 to 10000 | 1000 to 10000 | – | < 1000 | < 1000 | – | – | –
CC(C)CO[C@@H](C1C[C@@H](C)[C@H]2C(O1)[C@H](O)[C@@]1(C)C3CC[C@H]4C(C)(C)C(OC(=O)NC5CN(C=O)C5)CC[C@@]45C[C@@]35CC[C@]21C)C(C)(C)O (stereo partly shown) | 1000 to 10000 | 1000 to 10000 | 1000 to 10000 | < 1000 | 1000 to 10000 | – | – | –
CCO[C@@H](C1C[C@@H](C)[C@H]2C(O1)[C@H](O)[C@@]1(C)C3CC[C@H]4C(C)(C)C(OC(=O)N5CC[C@H](C(=O)O)C5)CC[C@@]45C[C@@]35CC[C@]21C)C(C)(C)O (stereo partly shown) | 1000 to 10000 | > 10000 | – | < 1000 | < 1000 | – | – | –
CCO[C@@H](C1C[C@@H](C)[C@H]2C(O1)[C@H](O)[C@@]1(C)C3CC[C@H]4C(C)(C)C(OC(=O)N5CC[C@@H](C(=O)O)C5)CC[C@@]45C[C@@]35CC[C@]21C)C(C)(C)O (stereo partly shown) | 1000 to 10000 | > 10000 | – | < 1000 | < 1000 | – | – | –
CCO[C@@H](C1C[C@@H](C)[C@H]2C(O1)[C@H](O)[C@@]1(C)C3CC[C@H]4C(C)(C)C(O[C@H]5CN(CCC(=O)O)CCO5)CC[C@@]45C[C@@]35CC[C@]21C)C(C)(C)O (stereo partly shown) | < 1000 | 1000 to 10000 | – | < 1000 | < 1000 | – | – | –
CCO[C@@H](C1C[C@@H](C)[C@H]2C(O1)[C@H](O)[C@@]1(C)C3CC[C@H]4C(C)(C)C(O[C@H]5CN(CCCC(=O)O)CCO5)CC[C@@]45C[C@@]35CC[C@]21C)C(C)(C)O (stereo partly shown) | 1000 to 10000 | 1000 to 10000 | – | < 1000 | < 1000 | 1000 to 10000 | – | –
CCO[C@@H](C1C[C@@H](C)[C@H]2C(O1)[C@H](O)[C@@]1(C)C3CC[C@H]4C(C)(C)C(O[C@H]5CN([C@@H](C)C(=O)O)CCO5)CC[C@@]45C[C@@]35CC[C@]21C)C(C)(C)O (stereo partly shown) | < 1000 | > 10000 | – | < 1000 | < 1000 | – | – | –
CCO[C@@H]([C@H]1C[C@@H](C)[C@H]2[C@H](O1)[C@H](O)[C@@]1(C)C3CC[C@H]4C(C)(C)C(OC(=O)N5CCC5)CC[C@@]45C[C@@]35CC[C@]21C)C(C)(C)O (stereo partly shown) | < 1000 | – | – | < 1000 | < 1000 | 1000 to 10000 | E/F^b (20 μM) | –
CCO[C@@H]([C@H]1C[C@@H](C)[C@H]2[C@H](O1)[C@H](O)[C@@]1(C)C3CC[C@H]4C(C)(C)C(OC(=O)NC5COC5)CC[C@@]45C[C@@]35CC[C@]21C)C(C)(C)O (stereo partly shown) | < 1000 | 1000 to 10000 | – | < 1000 | < 1000 | – | – | –
CCO[C@@H]([C@H]1C[C@@H](C)[C@H]2[C@H](O1)[C@H](O)[C@@]1(C)C3CC[C@H]4C(C)(C)C(OC(=O)NC5CNC5)CC[C@@]45C[C@@]35CC[C@]21C)C(C)(C)O (stereo partly shown) | < 1000 | 1000 to 10000 | > 10000 | < 1000 | < 1000 | – | – | –
CCS[C@@H](C1C[C@@H](C)C2C(O1)[C@H](O)[C@@]1(C)C3CC[C@H]4C(C)(C)C(O[C@H]5CN(C6COC6)CCO5)CC[C@@]45C[C@@]35CC[C@]21C)C(C)(C)O (stereo partly shown) | 1000 to 10000 | > 10000 | – | – | – | – | – | 25 to 75
CC(C)OC(C)(C)[C@H](O)C1C[C@@H](C)[C@H]2C(O1)[C@H](O)[C@@]1(C)C3CC[C@H]4C(C)(C)C(O)CC[C@@]45C[C@@]35CC[C@]21C (stereo partly shown) | 1000 to 10000 | > 10000 | – | – | – | – | – | 25 to 75

Reference: patent US20110251379A1, “COMPOUNDS USEFUL FOR TREATING NEURODEGENERATIVE DISORDERS” (Satori Pharmaceuticals, Inc., priority 2010, published 2011)
